Test results from PubChem BioAssay AID1918996 (Molecular Pharmacology Branch, DTP, NCI, 2023).

Tested on: 349418-098-R-PDC complex spheroid growth
Assay: Anticancer human tumor 349418-098-R-PDC patient-derived lung adenocarcinoma cell line growth inhibition [AhR]
Settings: for IC50: curve of first compound; for viability, T/C: stronger effect = lower value
Summary of the method: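 Agents were dosed in half-log steps down from roughly clinical Cmax, or from 10 microM where Cmax was unknown, alone and with AhR antagonists. Read-out: percent test/control growth of tumor spheroids containing HUVEC and MSC stromal cells.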

[1] = second compound 0.1 µM, first compound 0.0316 µM
[2] = second compound 0.1 µM, first compound 0.1 µM
[3] = second compound 0.1 µM, first compound 0.316 µM
[4] = second compound 0.1 µM, first compound 1 µM
[5] = second compound 0.1 µM, first compound 3.16 µM
[6] = second compound 0.1 µM, first compound 10 µM
[7] = second compound 0.316 µM, first compound 0.0316 µM
[8] = second compound 0.316 µM, first compound 0.1 µM
[9] = second compound 0.316 µM, first compound 0.316 µM
[10] = second compound 0.316 µM, first compound 1 µM
[11] = second compound 0.316 µM, first compound 3.16 µM
[12] = second compound 0.316 µM, first compound 10 µM
[13] = second compound 1 µM, first compound 0.0316 µM
[14] = second compound 1 µM, first compound 0.1 µM
[15] = second compound 1 µM, first compound 0.316 µM
[16] = second compound 1 µM, first compound 1 µM
[17] = second compound 1 µM, first compound 3.16 µM
[18] = second compound 1 µM, first compound 10 µM
[19] = second compound 3.16 µM, first compound 0.0316 µM
[20] = second compound 3.16 µM, first compound 0.1 µM
[21] = second compound 3.16 µM, first compound 0.316 µM
[22] = second compound 3.16 µM, first compound 1 µM
[23] = second compound 3.16 µM, first compound 3.16 µM
[24] = second compound 3.16 µM, first compound 10 µM
[25] = second compound 10 µM, first compound 0.0316 µM
[26] = second compound 10 µM, first compound 0.1 µM
[27] = second compound 10 µM, first compound 0.316 µM
[28] = second compound 10 µM, first compound 1 µM
[29] = second compound 10 µM, first compound 3.16 µM
[30] = second compound 10 µM, first compound 10 µM
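Further: spheroids exposed to agents for seven days before luminescence viability read.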
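Wherever viability, T/C is given: spheroids also contain HUVEC endothelial cells and human MSC stroma.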

SMILES | IC50 (second compound 0.1 µM) [µM] | IC50 (second compound 0.316 µM) [µM] | IC50 (second compound 1 µM) [µM] | IC50 (second compound 3.16 µM) [µM] | IC50 (second compound 10 µM) [µM] | viability, T/C [1] [%] | viability, T/C [2] [%] | viability, T/C [3] [%] | viability, T/C [4] [%] | viability, T/C [5] [%] | viability, T/C [6] [%] | viability, T/C [7] [%] | viability, T/C [8] [%] | viability, T/C [9] [%] | viability, T/C [10] [%] | viability, T/C [11] [%] | viability, T/C [12] [%] | viability, T/C [13] [%] | viability, T/C [14] [%] | viability, T/C [15] [%] | further results
O=C(c1cc(Cc2n[nH]c(=O)c3ccccc23)ccc1F)N1CCN(C(=O)C2CC2)CC1 + Cc1ccccc1N=Nc1ccc(NC(=O)c2ccnn2C)c(C)c1 | 2.02 | 6.2 | 2.81 | 0.661 | 1.43 | 81.3 | 73.2 | 91.4 | 62.1 | 44.9 | 39.6 | 98 | 89 | 108 | 64 | 66.3 | 41.4 | 106 | 82.4 | 69.7 | viability, T/C [16]: 62.8%; viability, T/C [17]: 49.4%; viability, T/C [18]: 39.9%; viability, T/C [19]: 76.9%; viability, T/C [20]: 69.9%; viability, T/C [21]: 63.4%; viability, T/C [22]: 41.8%; viability, T/C [23]: 41.3%; viability, T/C [24]: 43%; viability, T/C [25]: 56.4%; viability, T/C [26]: 53.1%; viability, T/C [27]: 50.9%; viability, T/C [28]: 60.1%; viability, T/C [29]: 38.8%; viability, T/C [30]: 31.4%
COc1cc(C2c3cc4c(cc3C(OC3OC5COC(C)OC5C(O)C3O)C3COC(=O)C23)OCO4)cc(OC)c1O (stereo not given) + Cc1cncc(-c2nc(NCCc3c[nH]c4ccccc34)c3ncn(C(C)C)c3n2)c1 | 0.476 | 0.384 | 0.426 | < 0.0316 | < 0.0316 | 97.8 | 99 | 62.4 | 24.9 | 9.98 | 4.8 | 103 | 86.5 | 58.3 | 19.1 | 8.45 | 5.08 | 93.3 | 90.9 | 59.6 | viability, T/C [16]: 20.9%; viability, T/C [17]: 9.01%; viability, T/C [18]: 6.23%; viability, T/C [19]: 24%; viability, T/C [20]: 19.2%; viability, T/C [21]: 14.8%; viability, T/C [22]: 10.2%; viability, T/C [23]: 7.3%; viability, T/C [24]: 4.57%; viability, T/C [25]: 1.7%; viability, T/C [26]: 1.71%; viability, T/C [27]: 1.45%; viability, T/C [28]: 1.18%; viability, T/C [29]: 1.04%; viability, T/C [30]: 1.29%
CC1COCCN1c1cc(C2(S(C)(=N)=O)CC2)nc(-c2ccnc3[nH]ccc23)n1 (stereo not given) + Cc1cncc(-c2nc(NCCc3c[nH]c4ccccc34)c3ncn(C(C)C)c3n2)c1 | 5.35 | 4.16 | 4.26 | < 0.0316 | < 0.0316 | 90.9 | 97 | 93.9 | 99.3 | 75.3 | 20 | 90.1 | 94.2 | 95.5 | 89.9 | 61.4 | 13.6 | 78.7 | 72.9 | 85.2 | viability, T/C [16]: 73.4%; viability, T/C [17]: 61.9%; viability, T/C [18]: 15.7%; viability, T/C [19]: 15.7%; viability, T/C [20]: 15.9%; viability, T/C [21]: 12.6%; viability, T/C [22]: 12.1%; viability, T/C [23]: 8.67%; viability, T/C [24]: 7.34%; viability, T/C [25]: 2.06%; viability, T/C [26]: 2.37%; viability, T/C [27]: 2.46%; viability, T/C [28]: 2.04%; viability, T/C [29]: 2.07%; viability, T/C [30]: 2.16%
